Laboratory results taken from patent US11555012B2 (Nimbus Artemis, Inc., priority 2018, dated 2023).

Target: ACL (Homo sapiens (Human), UniProt P53396)
Assay: ADP-Glo Assay
Details: not given

ACL, sequence (P53396 other isoform, or with tags, fused parts or gaps isoform P53396-2): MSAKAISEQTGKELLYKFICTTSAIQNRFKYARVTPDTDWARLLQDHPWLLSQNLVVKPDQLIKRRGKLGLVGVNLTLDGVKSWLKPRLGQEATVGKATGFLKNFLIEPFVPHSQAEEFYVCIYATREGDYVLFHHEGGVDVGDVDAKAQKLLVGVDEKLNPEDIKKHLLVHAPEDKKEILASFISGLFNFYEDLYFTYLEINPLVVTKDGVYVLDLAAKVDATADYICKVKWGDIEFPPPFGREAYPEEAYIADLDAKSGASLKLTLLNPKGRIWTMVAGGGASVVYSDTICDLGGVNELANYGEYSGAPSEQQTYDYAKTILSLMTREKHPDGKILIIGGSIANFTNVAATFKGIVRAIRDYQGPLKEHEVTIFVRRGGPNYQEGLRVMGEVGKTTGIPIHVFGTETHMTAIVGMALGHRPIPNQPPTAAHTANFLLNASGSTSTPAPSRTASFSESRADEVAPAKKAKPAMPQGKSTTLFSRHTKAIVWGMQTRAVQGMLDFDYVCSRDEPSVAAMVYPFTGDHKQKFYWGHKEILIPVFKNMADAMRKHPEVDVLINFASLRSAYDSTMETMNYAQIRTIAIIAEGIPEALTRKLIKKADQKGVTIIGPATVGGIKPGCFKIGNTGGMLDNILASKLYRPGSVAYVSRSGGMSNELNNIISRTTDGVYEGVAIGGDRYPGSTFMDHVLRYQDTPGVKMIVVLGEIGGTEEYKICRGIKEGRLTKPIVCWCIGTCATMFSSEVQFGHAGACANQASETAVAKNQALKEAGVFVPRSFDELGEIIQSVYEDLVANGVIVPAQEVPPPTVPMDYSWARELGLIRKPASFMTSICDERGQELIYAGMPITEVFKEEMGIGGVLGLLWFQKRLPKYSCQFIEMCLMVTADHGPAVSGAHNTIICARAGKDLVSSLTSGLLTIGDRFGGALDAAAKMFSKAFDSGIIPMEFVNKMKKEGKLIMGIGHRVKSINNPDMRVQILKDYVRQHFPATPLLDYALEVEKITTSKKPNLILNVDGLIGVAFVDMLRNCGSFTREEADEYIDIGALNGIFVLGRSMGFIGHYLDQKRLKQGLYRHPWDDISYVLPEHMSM

Row | IC50 [µM] | Compound
1 | > 20 | O=C(O)c1ccccc1NS(=O)(=O)c1cc(Cl)cc(Cl)c1 [I-522, 2-((3,5-dichlorophenyl)sulfonamido)benzoic acid]
2 | 0.5 to 20 | COc1ccc(CN(C)S(=O)(=O)c2cc(Cl)cc(Cl)c2O)cc1 [I-166]
3 | 0.5 to 20 | N#Cc1cc(S(=O)(=O)Nc2cc(-c3ccccc3)ccc2F)ccc1Cl [I-251]
4 | > 20 | CCC(=O)Nc1c(Cl)cc(Cl)cc1S(=O)(=O)Nc1cc(-c2ccccc2)ccc1OC [I-440, N-[2,4-dichloro-6-[(2-methoxy-5-phenylphenyl)sulfamoyl]phenyl]propanamide]
5 | 0.5 to 20 | COc1ccc(-c2ccccc2)cc1NC(=O)c1cc(Cl)cc(Cl)c1O [I-18, 3,5-dichloro-2-hydroxy-N-(4-methoxy-[1,1′-biphenyl]-3-yl)benzamide]
6 | > 20 | CC(C)(C)OC(=O)n1ccc2cccc(S(=O)(=O)Nc3cc(-c4ccccc4)ccc3F)c21 [I-382, tert-butyl 7-(N-(4-fluoro-[1,1′-biphenyl]-3-yl)sulfamoyl)-1H-indole-1-carboxylate]
7 | > 20 | COc1ccc(-c2ccccc2)cc1NS(=O)(=O)c1cc(Cl)cc(Cl)c1 [I-405, 3,5-dichloro-N-(4-methoxy-[1,1′-biphenyl]-3-yl)benzenesulfonamide]
8 | 0.5 to 20 | CN(c1cc(-c2ccccc2)c(F)cc1C(=O)O)S(=O)(=O)c1cc(Cl)cc(Cl)c1 [I-325, 5-((3,5-dichloro-N-methylphenyl)sulfonamido)-2-fluoro-[1,1′-biphenyl]-4-carboxylic Acid]
9 | > 20 | NC(=O)c1ccc(F)c(S(=O)(=O)Nc2cc(-c3ccccc3)ccc2F)c1 [I-429, 4-fluoro-3-(N-(4-fluoro-[1,1′-biphenyl]-3-yl)sulfamoyl)benzamide]
10 | 0.5 to 20 | O=S(=O)(Nc1cc(-n2nnnc2C2CC2)ccc1F)c1cc(Cl)cc(Cl)c1O [I-164]
11 | > 20 | COc1ccc(-c2ccccc2)cc1NS(=O)(=O)c1cc(C(=O)O)cs1 [I-408, 5-(N-(4-methoxy-[1,1′-biphenyl]-3-yl)sulfamoyl) thiophene-3-carboxylic acid]
12 | 0.5 to 20 | O=S(=O)(Nc1ccc(F)cc1F)c1cc(Cl)cc(Cl)c1O [I-219, 3,5-dichloro-N-(2,4-difluorophenyl)-2-hydroxybenzene-1-sulfonamide]
13 | > 20 | COc1ccc(-c2cccnc2)cc1NS(=O)(=O)c1cc(C(=O)O)cc(Cl)c1O [I-427, 3-chloro-4-hydroxy-5-(N-(2-methoxy-5-(pyridin-3-yl)phenyl)sulfamoyl)benzoic Acid]
14 | 0.5 to 20 | O=C(O)c1ccsc1NS(=O)(=O)c1cc(Cl)cc(Cl)c1 [I-352, 2-((3,5-dichlorophenyl)sulfonamido)thiophene-3-carboxylic Acid]
15 | 0.5 to 20 | COc1ccc(-c2ccccc2)cc1NS(=O)(=O)c1cc(C(=O)N2CCNCC2)cc(Cl)c1O [I-277, 3-chloro-2-hydroxy-N-[4-methoxy-[1,1-biphenyl]-3-yl]-5-(piperazine-1-carbonyl)benzene-1-sulfonamide]
16 | > 20 | COc1cc(-c2ccccc2)ccc1NS(=O)(=O)c1cc(Cl)cc(Cl)c1C [I-403, 3,5-dichloro-N-(3-methoxy-[1,1′-biphenyl]-4-yl)-2-methylbenzenesulfonamide]
17 | 0.5 to 20 | CC(C)(C)Cc1nc2cc(NS(=O)(=O)c3cc(Cl)cc(Cl)c3O)ccc2o1 [I-172]
18 | 0.5 to 20 | CC#Cc1cc(Cl)ccc1N(C)S(=O)(=O)c1cc(Br)cc(Cl)c1O [I-516, 5-bromo-3-chloro-N-(4-chloro-2-(prop-1-yn-1-yl)phenyl)-2-hydroxy-N-methylbenzenesulfonamide]
19 | 0.5 to 20 | O=C(O)c1ccc(-c2ccccc2)cc1NS(=O)(=O)CC1CCCC1 [I-274]
20 | 0.5 to 20 | COC(=O)c1ccc(F)c(NS(=O)(=O)c2cc(Cl)cc(Cl)c2O)c1 [I-43, Methyl 3-((3,5-dichloro-2-hydroxyphenyl)sulfonamido)-4-fluorobenzoate]
21 | 0.5 to 20 | CC(=O)NCCNC(=O)c1cc(Cl)c(O)c(S(=O)(=O)Nc2cc(-c3ccccc3)c(F)cc2F)c1 [I-161, N-(2-[[3-chloro-5-([4,6-difluoro-[1,1-biphenyl]-3-yl]sulfamoyl)-4-hydroxyphenyl]formamido]ethyl)acetamide]
22 | > 20 | COc1ccc(-c2cccnc2)cc1NS(=O)(=O)c1cc(C(=O)O)cc(Cl)c1OC [I-425, 3-chloro-4-methoxy-5-(N-(2-methoxy-5-(pyridin-3-yl)phenyl)sulfamoyl)benzoic Acid]
23 | 0.5 to 20 | COc1ccc(C)cc1S(=O)(=O)Nc1cc(-c2ccccc2)ccc1C(=O)O [I-313, 3-((2-methoxy-5-methylphenyl)sulfonamido)-[1,1′-biphenyl]-4-carboxylic Acid]
24 | 0.5 to 20 | O=C(O)COc1c(Cl)cc(C(=O)N2CCC2)cc1S(=O)(=O)Nc1cc(-c2ccccc2)c(F)cc1F [I-199, 2-[4-(azetidine-1-carbonyl)-2-chloro-6-([4,6-difluoro-[1,1-biphenyl]-3-yl]sulfamoyl)phenoxy]acetic Acid]

Row | IC50 [µM] | Compound
25 | 0.5 to 20 | O=S(=O)(NCc1nc(-c2cccc(F)c2)no1)c1cc(Cl)cc(Cl)c1O [I-168]
26 | 0.5 to 20 | COc1ccc(-c2ccccc2)cc1NS(=O)(=O)c1cc(Cl)c[nH]c1=O [I-354, 5-chloro-N-[4-methoxy-[1,1-biphenyl]-3-yl]-2-oxo-1,2-dihydropyridine-3-sulfonamide]
27 | > 20 | COc1ccc(-c2ccccc2)cc1NS(=O)(=O)c1cc(C(N)=O)cc(Cl)c1OC [I-432, 3-chloro-4-methoxy-5-(N-(4-methoxy-[1,1′-biphenyl]-3-yl)sulfamoyl)benzamide]
28 | > 20 | O=C(O)CCc1cc(Cl)c(O)c(S(=O)(=O)Nc2cc(F)cc(F)c2)c1 [I-399, 3-(3-chloro-5-(N-(3,5-difluorophenyl)sulfamoyl)-4-hydroxyphenyl) Propanoic Acid]
29 | 0.5 to 20 | CC(C)(C)C(=O)Oc1c(Cl)cc(C(=O)N2CCC2)cc1S(=O)(=O)Nc1cc(-c2ccccc2)c(F)cc1F [I-210, 4-(azetidine-1-carbonyl)-2-chloro-6-(N-(4,6-difluoro-[1,1′-biphenyl]-3-yl)sulfamoyl)phenyl Pivalate]
30 | 0.5 to 20 | CC(=O)N1CCCN(c2ccc(F)cc2NS(=O)(=O)c2cc(Cl)cc(Cl)c2O)CC1 [I-175]
31 | > 20 | COc1ccc(-c2ccccc2)cc1NS(=O)(=O)c1cccc(C(=O)O)c1 [I-406, 3-(N-(4-methoxy-[1,1′-biphenyl]-3-yl)sulfamoyl)benzoic acid]
32 | > 20 | Cc1cccc(C(=O)O)c1NS(=O)(=O)c1cc(Cl)cc(Cl)c1 [I-533, 2-((3,5-dichlorophenyl)sulfonamido)-3-methylbenzoic acid]
33 | > 20 | COc1ccc(-c2ccccc2)cc1NS(=O)(=O)c1cc(-c2nn[nH]n2)ccc1OC [I-442, 2-methoxy-N-(2-methoxy-5-phenylphenyl)-5-(2H-1,2,3,4-tetrazol-5-yl)benzene-1-sulfonamide]
34 | 0.5 to 20 | O=S(=O)(Nc1cccc2cccc(F)c12)c1cc(Cl)cc(Cl)c1O [I-186]
35 | 0.5 to 20 | O=C(O)c1cc(Cl)c(O)c(S(=O)(=O)Nc2ccc(F)cc2F)c1 [I-76, 3-chloro-5-[(2,4-difluorophenyl)sulfamoyl]-4-hydroxybenzoic Acid]
36 | > 20 | COc1ccc(-c2ccccc2)cc1N(Cc1ccccc1)S(=O)(=O)c1cn[nH]c1 [I-417, N-benzyl-N-(2-methoxy-5-phenylphenyl)-1H-pyrazole-4-sulfonamide]
37 | 0.5 to 20 | O=C(COc1c(Cl)cc(Cl)cc1S(=O)(=O)Nc1cc(-c2ccccc2)ccc1F)N1CCC1 [I-153, 2-(2-(azetidin-1-yl)-2-oxoethoxy)-3,5-dichloro-N-(4-fluoro-[1,1′-biphenyl]-3-yl)benzenesulfonamide]
38 | 0.5 to 20 | CN(C)C(=O)C(NS(=O)(=O)c1cc(Cl)cc(Cl)c1O)c1ccccc1 (stereo not drawn) [I-179]
39 | 0.5 to 20 | O=C(O)c1c(NS(=O)(=O)c2cc(Cl)cc(Cl)c2)sc2c1CCC2 [I-341, 2-((3,5-dichlorophenyl)sulfonamido)-5,6-dihydro-4H-cyclopenta[b]thiophene-3-carboxylic acid]
40 | 0.5 to 20 | O=C(O)c1ccc(-c2ccccc2)cc1NCc1cc(Cl)cc(Cl)c1 [I-267, 3-((3,5-dichlorobenzyl)amino)-[1,1′-biphenyl]-4-carboxylic Acid]
41 | 0.5 to 20 | CNC(=O)COc1c(Cl)cc(Cl)cc1S(=O)(=O)Nc1cc(-c2ccccc2)ccc1F [I-152, 2-(2,4-dichloro-6-(N-(4-fluoro-[1,1′-biphenyl]-3-yl)sulfamoyl)phenoxy)-N-methylacetamide]
42 | > 20 | COc1ccc(-c2ccccc2)cc1NS(=O)(=O)c1cc(CC(=O)O)cc(Cl)c1OC [I-439, 2-[3-chloro-4-methoxy-5-[(2-methoxy-5-phenylphenyl)sulfamoyl]phenyl]acetic Acid]
43 | > 20 | O=S(=O)(Nc1ccc(-c2ccccc2)cc1F)c1cccc2ncoc12 [I-393, N-(3-fluoro-[1,1′-biphenyl]-4-yl)benzo[d] oxazole-7-sulfonamide]
44 | > 20 | COc1ccc(-c2ccccc2)cc1NS(=O)(=O)c1cc(Cl)cc(C(=O)O)c1OC [I-430, 5-chloro-2-methoxy-3-(N-(4-methoxy-[1,1′-biphenyl]-3-yl)sulfamoyl)benzoic Acid]
45 | 0.5 to 20 | CCC(=O)Oc1ccccc1S(=O)(=O)Nc1cc(-c2ccccc2)ccc1F [I-121, 2-[(2-fluoro-5-phenylphenyl)sulfamoyl]phenyl Propanoate]
46 | 0.5 to 20 | O=C(c1cc(Cl)c(O)c(SCc2cc(-c3ccccc3)c(F)cc2F)c1)N1CCCC1 [I-205, (3-chloro-5-(((4,6-difluoro-[1,1′-biphenyl]-3-yl)methyl)thio)-4-hydroxyphenyl)(pyrrolidin-1-yl)methanone]
47 | 0.5 to 20 | O=C(O)c1ccc(-c2ccccc2)cc1NS(=O)(=O)c1cc(Cl)cc(-c2nccs2)c1 [I-234, 3-((3-chloro-5-(thiazol-2-yl)phenyl)sulfonamido)-[1,1′-biphenyl]-4-carboxylic Acid]

Same assay, conditions: read-out: ACL-ADP-Glo (IC50); 3 nM ACL, 15 μM ATP, 3 μM CoA, 300 μM Citrate

Row | IC50 [µM] | Compound
48 | < 0.05 | CCOC(=O)c1cc(Cl)c(O)c(S(=O)(=O)Nc2cc(-c3cc4ccccc4s3)c(F)cc2OC)c1 [I-506, ethyl 3-(N-(5-(benzo[b]thiophen-2-yl)-4-fluoro-2-methoxyphenyl)sulfamoyl)-5-chloro-4-hydroxybenzoate]
